Experimental data from patent US20200147039A1, “COMPOUNDS USEFUL IN INHIBITING HUMAN TREFOIL FACTOR 3” (NATIONAL UNIVERSITY OF SINGAPORE, priority 2017, published 2020).

Columns and labels:
[1] = test system: DU145; assay: AlamarBlue cell viability assay, DU145; format: cell-based; details: Homo sapiens, DU-145, Prostate
Procedure: (§1) The human immortalized mammary epithelial cell lines, MCF10A, and MCF12A; and immortalized hepatocellular epithelial cell line, LO2 were obtained from the American Type Culture Collection (ATCC, Rockville, Md.) and were cultured as per ATCC propagation instructions. MC cell lines, MCF7, T47D, BT474, BT20, MDA-MB-361, MDA-MB-436, MDA-MB-468, and MDA-MB-231; endometrial carcinoma cell lines, Ishikawa, ECC1, RL95-2 and AN3; hepatocellular carcinoma cell lines, Hep3B, H2P, and H2M; colon carcinoma cell lines, DLD-1, and Caco-2; and prostate carcinoma cell lines, PC3, LNCaP, and DU145 were obtained from the American Type Culture Collection (ATCC, Rockville, Md.). Pancreatic carcinoma cell lines, AsPC-1 and BxPC-3; Lung carcinoma cell lines, HCC-827, NCI-H1975, HCC-4006, PC-14, and NCI-H1299; and Thyroid carcinoma cell lines HTH83, CAL62, T238, and OGK-M were obtained from Prof. H. Phillip Koeffler's laboratory at The Cancer Science Institute of Singapore, National University of Singapore (NUS). Gastric carcinoma cell lines, AGS, MKN-28, MKN-45, and A2-528 were obtained from Prof. […]
(§2) In table 9 IC50 values of compound 43 compound library in several cancer cell lines are tabulated, using an AlamarBlue® cell viability assay as previously described in Pandey V et al., Breast Cancer Res. 2014; 16(5):429. Statistical analysis was assessed by using GraphPad Prism5. […]

[2] = test system: H1299; assay: AlamarBlue cell viability assay, H1299; format: cell-based; details: Homo sapiens, NCI-H1299, Lung
Procedure: as §1, §2

[3] = test system: MCF7; assay: qPCR analysis of mRNA levels of genes associated with oncogenic progression, MCF7; format: cell-based, human; details: MCF7, 10 μM
Procedure: Total RNA was isolated from cells using TRIzol Plus RNA Purification system as previously described in Pandey V et al., Endocrinology. 2010; 151(3):909-920. qPCR assays were performed as previously described in Pandey V et al., Endocrinology. 2010; 151(3):909-920; and Pandey V et al., Endocrinology. 2008; 149(8):3909-3919. Gene expression analysis was performed as previously described in Pandey V et al., Endocrinology. 2010; 151(3):909-920; and Pandey V et al., Endocrinology. 2008; 149(8):3909-3919.

[4] = test system: Hep3B; assay: AlamarBlue cell viability assay, Hep3B; format: cell-based; details: Homo sapiens, Hepatocellular
Procedure: as §1, §2

[5] = test system: OGK-M; assay: AlamarBlue cell viability assay, OGK-M; format: cell-based; details: Homo sapiens, Thyroid
Procedure: as §1, §2

[6] = test system: MKN-28; assay: AlamarBlue cell viability assay, MKN-28; format: cell-based; details: Homo sapiens, Gastric
Procedure: as §1, §2

[7] = test system: T238; assay: AlamarBlue cell viability assay, T238; format: cell-based; details: Homo sapiens, Thyroid
Procedure: as §1, §2

[8] = test system: MDA-MB-231; assay: AlamarBlue cell viability assay, MDA-MB-231; format: cell-based; details: Homo sapiens, Mammary
From the text: (A) Inhibitory concentration 50% (IC50) values for compound 43 in the MC cell lines are tabulated, using an AlamarBlue™ cell viability assay as previously described in Pandey V et al., Breast Cancer Res. 2014; 16(5):429. (B) Measured dose-dependent manner effect of compound 43 on the viability of MC cells (left-side, TFF3-high and right, TFF3-low) using AlamarBlue™ viability assay as previously described (ibid). (C) Apoptotic cell death of mammary carcinoma cell lines measured after treatment with 10 μM compound 43 using flow cytometry analysis at 24 hour as described previously in Keerthy H K et al., PloS one. 2014; 9(9):e107118. Annexin V-FITC staining is indicated on the X-axis and PI staining on the Y-axis. […] Acquisition of Annexin V and PI data were represented as percentage (%) in each quadrant. Note: CM, conditioned media; MCF10A and MCF12A, non-transformed immortalized-mammary epithelial cell line. Points are mean of triplicate experiments; bars, ±SD. Statistical significance was assessed by using an unpaired two-tailed Student's t test (P<0.05 was considered as significant) using GraphPad Prism5. […]
as §2

[9] = test system: Caco-2; assay: AlamarBlue cell viability assay, Caco-2; format: cell-based; details: Homo sapiens, Colon
Procedure: as §1, §2

[10] = test system: Ishikawa; assay: AlamarBlue cell viability assay, Ishikawa; format: cell-based; details: Homo sapiens, Endometrial
Procedure: as §1, §2

[11] = test system: MKN-45; assay: AlamarBlue cell viability assay, MKN-45; format: cell-based; details: Homo sapiens, Gastric
Procedure: as §1, §2

[12] = test system: H2M; assay: AlamarBlue cell viability assay, H2M; format: cell-based; details: Homo sapiens, Hepatocellular
Procedure: as §1, §2

## Cc1cc(-c2ccc(C3C(C#N)=C(N)Oc4c3c(=O)oc3ccccc43)cc2)cnc1F (stereo not drawn) [Compound 43, 2-Amino-4-(4-(6-fluoro-5-methylpyridin-3-yl)phenyl)-5-oxo-4H,5H-pyrano[3,2-c]chromene-3-carbonitrile]
[1]
  IC50: 1.91 µM
[2]
  IC50: 18.6 µM
[3]
  APAF1 mRNA, Fold change relative to vehicle control: 0.94 fold
  ATM mRNA, Fold change relative to vehicle control: 0.32 fold
  BAD mRNA, Fold change relative to vehicle control: 0.09 fold
  BAK1 mRNA, Fold change relative to vehicle control: 2.09 fold
  BAX mRNA, Fold change relative to vehicle control: 18.54 fold
  BCL2L1 mRNA, Fold change relative to vehicle control: 0.04 fold
  BCL2 mRNA, Fold change relative to vehicle control: 0.06 fold
  BCLAF1 mRNA, Fold change relative to vehicle control: 0.87 fold
  BRCA1 mRNA, Fold change relative to vehicle control: 2.00 fold
  CASP7 mRNA, Fold change relative to vehicle control: 30.71 fold
  CCND1 mRNA, Fold change relative to vehicle control: 0.01 fold
  CDC25A mRNA, Fold change relative to vehicle control: 0.49 fold
  CDK2 mRNA, Fold change relative to vehicle control: 0.15 fold
  CDK4 mRNA, Fold change relative to vehicle control: 0.18 fold
  CDKN1A mRNA, Fold change relative to vehicle control: 114.92 fold
  CDKN1B mRNA, Fold change relative to vehicle control: 11.08 fold
  CDKN2A mRNA, Fold change relative to vehicle control: 5.45 fold
  CFLAR mRNA, Fold change relative to vehicle control: 0.02 fold
  CHEK2 mRNA, Fold change relative to vehicle control: 1.14 fold
  Cyclin E1 mRNA, Fold change relative to vehicle control: 0.01 fold
  E2F1 mRNA, Fold change relative to vehicle control: 1.80 fold
  GZMA mRNA, Fold change relative to vehicle control: 0.93 fold
  HTATIP2 mRNA, Fold change relative to vehicle control: 2.87 fold
  MDM2 mRNA, Fold change relative to vehicle control: 6.62 fold
  RB1 mRNA, Fold change relative to vehicle control: 1.00 fold
  S100A4 mRNA, Fold change relative to vehicle control: 1.49 fold
  TERT mRNA, Fold change relative to vehicle control: 0.11 fold
  TNFRSF1A mRNA, Fold change relative to vehicle control: 1.15 fold
  TNFRSF10B mRNA, Fold change relative to vehicle control: 1.05 fold
  TNFRSF25 mRNA, Fold change relative to vehicle control: 1.41 fold
  TP53 mRNA, Fold change relative to vehicle control: 282.98 fold
[4]
  IC50: 8.44 µM
[5]
  IC50: 411 µM
[6]
  IC50: 84.9 µM
[7]
  IC50: 185 µM
[8]
  IC50: 408 µM
[9]
  IC50: 2.84 µM
[10]
  IC50: 0.94 µM
[11]
  IC50: 6.81 µM
[12]
  IC50: 7.86 µM
